In US20250320458A1, “CARDIOMYOCYTE SUBTYPES AND METHODS OF MAKING AND USING” (University Health Network, priority 2021, published 2025):

Tests used:
Assay type in all cases: cell-based, human
day 5 aSHF cells = assay: Retinol treatment of day 5 aSHF cells, RT-qPCR of RA-responsive genes; conditions: ROH for 24 hours vs DMSO, RT-qPCR day 6 (FIG. 4J)
Protocol: At day 1, the EBs were transferred to mesoderm induction media consisting of base media, 5 ng/mL rhbFGF (R&D), and various concentration of rhBMP4 (R&D) and rhActivinA (R&D) as described in the results section. At day 3, the EBs were transferred to the media consisting of base media, 2 μM Wnt inhibitor IWP2 (TOCRIS) and 10 ng/ml rhVEGF (R&D). From day 5 to day 12, the EBs were transferred to base media with 5 ng/mL rhVEGF. From day 12 to day 20, the EBs were transferred to base media and cultured in a normoxic environment (5% CO2, 20% O2). For pSHF lineage differentiation, the day 4 sorted pSHF cells were treated with 2 μM Retinol (Sigma) from day 4 to day 8. […]
RNA extraction was performed using the RNAqueous-micro Kit (Invitrogen). […] QRT-PCR was performed on an EP Real-Plex MasterCycler (Eppendorf) using QuantiFast SYBR Green PCR kit (QIAGEN). The copy number of each gene was determined based on a standard curve plotted with human genome DNA with known copy number. […]
The pSHF lineage expressed ALDH1A2 and RDH10, from the day 3 mesoderm stage onward, whereas expression of these genes was not detected until day 4 of differentiation in the aSHF lineage (FIG. 4G). These patterns correlate well with ALDH activity, which was detected in more than 90% of the days 4 and 5 pSHF cells. […] ALDH was not detected in the day 5 FHF population. […]

[1] = system: day 4 pSHF cells (ALDH CXCR4−); assay: Retinol treatment of isolated day 4 pSHF cells, RT-qPCR of progenitor markers; conditions: retinol 2 μM vs DMSO, 24 hours
Protocol: At day 1, the EBs were transferred to mesoderm induction media consisting of base media, 5 ng/mL rhbFGF (R&D), and various concentration of rhBMP4 (R&D) and rhActivinA (R&D) as described in the results section. At day 3, the EBs were transferred to the media consisting of base media, 2 μM Wnt inhibitor IWP2 (TOCRIS) and 10 ng/ml rhVEGF (R&D). From day 5 to day 12, the EBs were transferred to base media with 5 ng/mL rhVEGF. From day 12 to day 20, the EBs were transferred to base media and cultured in a normoxic environment (5% CO2, 20% O2). For pSHF lineage differentiation, the day 4 sorted pSHF cells were treated with 2 μM Retinol (Sigma) from day 4 to day 8. Similarly, the sorted aSHF cells were treated with 2 μM Retinol and 10 ng/mL rhBMP4 from day 5 to day 8 of differentiation.
RNA extraction was performed using the RNAqueous-micro Kit (Invitrogen). Purified RNA was treated with RNase-free DNase (Invitrogen), and then reverse transcribed into cDNA using oligo (dT) primers and random hexamers and iscript Reverse Transcriptase (ThermoFisher). QRT-PCR was performed on an EP Real-Plex MasterCycler (Eppendorf) using QuantiFast SYBR Green PCR kit (QIAGEN). The copy number of each gene was determined based on a standard curve plotted with human genome DNA with known copy number. The relative expression levels of genes were obtained by normalizing their copy number to that of TBP. […]

aSHF cells = assay: Extended BMP agonist/antagonist treatment of aSHF cells, day 20 RT-qPCR; conditions: aSHF cells treated with LDN
Protocol: (§1) RNA extraction was performed using the RNAqueous-micro Kit (Invitrogen). Purified RNA was treated with RNase-free DNase (Invitrogen), and then reverse transcribed into cDNA using oligo (dT) primers and random hexamers and iscript Reverse Transcriptase (ThermoFisher). QRT-PCR was performed on an EP Real-Plex MasterCycler (Eppendorf) using QuantiFast SYBR Green PCR kit (QIAGEN). The copy number of each gene was determined based on a standard curve plotted with human genome DNA with known copy number. The relative expression levels of genes were obtained by normalizing their copy number to that of TBP.
The above observation that the aSHF progenitors express genes involved in Bmp signaling is consistent with the known role of this pathway in the development of right ventricular cardiomyocytes from aSHF progenitors in the mouse. […] The notable exception is the genes for the ligands BMP2 and BMP4, which are also highly expressed in the FHF lineage (FIG. 5B). To determine if BMP plays a role in the differentiation of the aSHF progenitors to derivative lineages, the day 5 cells were treated with either a pathway agonist (10 ng/mL BMP4) or antagonist (0.1 μM LDN) and then the population was analyzed 24 hours after the treatments. […]

aSHF progenitors [2] = assay: BMP pathway agonist/antagonist treatment of day 5 aSHF progenitors, RT-qPCR 24 hours after treatment; conditions: for expression of genes indicative of aSHF (FGF8 and ISL1), pSHF (HOXB1) and FHF (HAND1) fates in the aSHF population: 10 ng/mL BMP4 or 0.1 μM LDN, ROH added, 24 hours after treatment (FIG. 5C)
Protocol: as §1
(§2) The above observation that the aSHF progenitors express genes involved in Bmp signaling is consistent with the known role of this pathway in the development of right ventricular cardiomyocytes from aSHF progenitors in the mouse. […] The notable exception is the genes for the ligands BMP2 and BMP4, which are also highly expressed in the FHF lineage (FIG. 5B). To determine if BMP plays a role in the differentiation of the aSHF progenitors to derivative lineages, the day 5 cells were treated with either a pathway agonist (10 ng/mL BMP4) or antagonist (0.1 μM LDN) and then the population was analyzed 24 hours after the treatments. FHF and pSHF progenitors were included in the analyses, and ROH was added to the cultures of pSHF and aSHF progenitor, given that both populations display ALDH activity. […] Inhibition of the pathway did, however, lead to upregulation of genes associated with pharyngeal progenitors (FOXC2 and SIX1) (FIG. 5D) and downregulation of those indicative of cardiomyocyte development (UNC45B and GATA4) (FIG. 5E). To further investigate the consequences of BMP manipulation, the agonist/antagonist treatment was extended for an additional 48 hours and then the treated cells were cultured for 12 days to promote cardiomyocyte development. FHF and pSHF progenitors also were cultured for 20 days without manipulation of BMP signaling. All 3 progenitor populations generated TNNT2^+/SIRPa^+ cardiomyocytes by day 20 of differentiation (FIGS. 5F and 5G). In addition to the cardiomyocytes, the aSHF-derived population also contained PDGFR-beta^+ mesenchymal cells (FIG. 5F).

aSHF progenitors [3] = assay: Extended BMP agonist/antagonist treatment of aSHF progenitors, day 20 flow cytometry and cell numbers; conditions: treatment extended additional 48 hours, then cultured 12 days; day 20 (FIGS. 5F and 5H)
Protocol: Cells of early stages (day 3 to day 6) were dissociated with TrypLE for 3-5 minutes at room temperature to single cells, which were then filtered and transferred to IMDM media. Day 20 EBs were dissociated with 0.5 mg/ml collagenase type 2 (Worthington) in HANKs buffer for 1.5 hours at 37° C. The filtered day 20 cells were then transferred to FACS buffer consisting of PBS with 5% fetal calf serum (Wisent) and 0.02% sodium azide. The following antibodies were used for staining samples obtained from various stages of differentiation: anti-PDGFRa-PE (R&D Systems, 1:20), anti-CD235a/b-APC (BD PharMingen, 1:200), anti-SIRPa-PeCy7 (Biolegend, 1:2000), anti-CXCR4 (Biolegend, 1:100), anti-CDId-PE (Biolegend, 1:100), anti-CD49c-PE (ThermoFisher, 1:100), anti-cardiac isoform of CTNT (ThermoFisher Scientific, 1:2000), or anti-myosin light chain 2 (Abcam, 1:1000). For unconjugated primary antibodies, the following secondary antibodies were used for detection: goat anti-mouse IgG-APC (BD Pharmigen, 1:250), or donkey anti-rabbit IgG-PE (Jackson ImmunoResearch, 1:250). Detailed antibody information is described in Table 2.
To stain live cells with cell-surface protein, dissociated single cells were stained for 15 minutes at room temperature in FACS buffer and washed twice before they were subject to further analyses. For intracellular staining, cells were fixed for 15 min at 4° C. in PBS containing 4% PFA followed by permeabilization using 90% methanol for 15 min at 4° C. The permeabilized cells were washed with PBS containing 0.5% BSA (Sigma) twice and stained with unconjugated primary antibodies in FACS buffer for 18 hours at 4° C. Stained cells were washed with PBS with 0.5% BSA and stained with proper secondary antibodies in FACS buffer for 30 mins at 4° C. Following washing steps, stained cells were processed with the Fortessa (BD) and analyzed using FlowJo software (Tree Star). For cell sorting, stained cells were kept in StemPro-34 media and sorted using Influx (BD), FACSAriall (BD), MoFlo-XDP (BD) and FACSAria Fusion (BD). Data were analyzed using FlowJo software (Tree Star).
as §2, with “All 3 progenitor populations generated TNNT2^+/SIRPa^+ cardiomyocytes by day 20 of differentiation (FIGS. 5F and 5G). In addition to the cardiomyocytes, the aSHF-derived population also contained PDGFR-beta^+ mesenchymal cells (FIG. 5F).” left out

Molecule: CC1=C(/C=C/C(C)=C/C=C/C(C)=C/CO)C(C)(C)CCC1 [ROH, Retinol]
- expression of the RA-responsive gene CYP26A1 and HOXB1 (day 5 aSHF cells): upregulation
- expression of the RA responsive gene CYP26A1 and the pSHF progenitor markers HOXA1 and HOXB1 ([1]; RT-qPCR (FIG. 3H)): upregulation
- expression of aSHF progenitor markers FGF10, FOXC1 and FOXC2 ([1]; RT-qPCR (FIG. 3I)): downregulated

Molecule: c1ccc2c(-c3cnn4cc(-c5ccc(N6CCNCC6)cc5)cnc34)ccnc2c1 [LDN, LDN 193189]
- expression of the ventricular cardiomyocyte markers IRX4 and MY1.2 (aSHF cells): decrease
- levels of PDGFRB (aSHF cells): elevated
- expression of genes indicative of aSHF (FGF8 and ISL1), pSHF (HOXB1) and FHF (HAND1) fates in the aSHF population (aSHF progenitors [2]): did not alter
- expression of genes associated with pharyngeal progenitors (FOXC2 and SIX1) (aSHF progenitors [2]; 0.1 μM LDN, 24 hours after treatment (FIG. 5D)): upregulation
- expression of genes indicative of cardiomyocyte development (UNC45B and GATA4) (aSHF progenitors [2]; 0.1 μM LDN, 24 hours after treatment (FIG. 5E)): downregulation
- PDGFR-beta+ cells in the aSHF-derived population (number / size of fraction) (aSHF progenitors [3]): increased
- proportion of cardiomyocytes in the aSHF-derived population (aSHF progenitors [3]): reduced

B1: BMP4: Recombinant human BMP4 (R&D), BMP pathway agonist (protein, UniProt P12644 293-408, looked up)
Bone morphogenetic protein 4: SPKHHSQRARKKNKNCRRHSLYVDFSDVGWNDWIVAPPGYQAFYCHGDCPFPLADHLNSTNHAIVQTLVNSVNSSIPKACCVPTELSAISMLYLDEYDKVVLKNYQEMVVEGCGCR
- expression of genes indicative of aSHF (FGF8 and ISL1), pSHF (HOXB1) and FHF (HAND1) fates in the aSHF population (aSHF progenitors [2]): did not alter
- PDGFR-beta+ cells in the aSHF-derived population (number / size of fraction) (aSHF progenitors [3]): reducing
- number of cardiomyocytes in the aSHF-derived population (aSHF progenitors [3]): increased
- proportion of cardiomyocytes in the aSHF-derived population (aSHF progenitors [3]): increased
